We go through 5 compounds from PMC7865627, “Small Molecule-Based Prodrug Targeting Prostate Specific Membrane Antigen for the Treatment of Prostate Cancer” (Cancers, 2021).

Like-named read-outs stand apart in the source and are kept apart here. *1 amine or outer side, *2 acyl side, *3 side chain or, on linkers, in order; H or OH if unused. Where a SMILES comes first, the peptide text is derived from it. Bridges are numbered along the chain shown (N, C = ends). Roman numbers before positions name the chains, in order. [ ]: non-standard residue; d: D form. The star is where a group is joined. X3 = CN1/C(=C/C=C/C=C/C2=[N+](CCCCCC(=O)*)c3ccc4ccccc4c3C2(C)C)C(C)(C)c2c1ccc1ccccc21; Dolaproine = CO[C@@H]([C@@H]1CCCN1)[C@@H](C)C(=O)O; Dil = CC[C@H](C)[C@H](NC)[C@@H](CC(=O)O)OC; X4 = O=C1CC([*:2])C(=O)N1CCCCCC(=O)[*:1]; γGlu = O=C(O)[C@H](CCC(=O)[*:2])N[*:1]; PABC = O=C(OCc1ccc(N[*:1])cc1)[*:2]; X2 = C[C@@H](N*)[C@@H](O)c1ccccc1; Trx = NC[C@H]1CC[C@H](C(=O)O)CC1; Cit = NC(=O)NCCC[C@H](N)C(=O)O; NMeV = CN[C@H](C(=O)O)C(C)C; CO = O=C([*:1])[*:2]; Ahx = NCCCCCC(=O)O

Data set [1] has as its system PSMA-positive PC3pip cells. As to the kind of experiment: In vitro cytotoxicity assay (CCK-8), PC3pip. The format is cell-based, human. On the procedure:
(§1) Cells (1000/well) were seeded in 96-well culture plates the day before treatment.

Data set [2] has as its system α-tubulin in PC3flu cells. As to the kind of experiment: Immunofluorescence analysis of alpha-tubulin, PC3flu. The class given is cell-based, human. The settings on record: 5 nM, 24 h, Alexa Fluor 488 α-tubulin antibody. On the procedure:
(§2) Cells were washed and fixed with 4% paraformaldehyde for 10 min, permeabilized with 0.1% Triton™ X-100 for 10 min, and blocked with 1% BSA for 1 h at room temperature. Alpha-tubulin (B5-1-2) Alexa Fluor 488 Mouse Monoclonal Antibody (Invitrogen) was then added at 2 µg/mL in 0.1% BSA and incubated for 3 h at room temperature. Cells were counterstained with DAPI, mounted with Fluor-Mount aqueous mounting solution, and observed under Leica DM4000B fluorescence microscopy at 40×.

In data set [3] the test system is α-tubulin in PC3pip cells. As to the kind of experiment: Immunofluorescence analysis of alpha-tubulin, PC3pip. The conditions noted are these: 5 nM, 24 h, Alexa Fluor 488 α-tubulin antibody. The class given is cell-based, human. On the procedure: as §2
Data set [4] has as its system PSMA-negative PC3flu cells. As to the kind of experiment: In vitro cytotoxicity assay (CCK-8), PC3flu. The settings on record: 72 h incubation, CCK-8; mean ± SD. The class given is cell-based, human. On the procedure:
as §1

Data set [5] can be described thus: Stability on incubation in PBS (without cathepsin), HPLC. The format is in vitro ADME. The settings on record: incubation with PBS without cathepsin, triplicate. On the procedure: (§3) Cathepsin is a prevalent protease that PSMA internalized ligands will encounter as they enter into late endosomes/lysosomes. To investigate if PSMA-targeted drug conjugates were cleavable by cathepsin B, the two conjugates were incubated with or without cathepsin protease and chromatographed by high performance liquid chromatography (HPLC).
(§4) At different time intervals, 40 μL of the solution was taken out into tubes loaded with 1 μL of 1 mM E64 protease inhibitor. […] Studies were performed in triplicate.

The subject of data set [6] is PSMA-negative PC3flu cells. As to the kind of experiment: In vitro cellular uptake (confocal fluorescence), PC3flu. The format is cell-based, human. The settings on record: 50 nM conjugate, 4 h, 37 °C, confocal microscopy. On the procedure:
Figure 2 In vitro fluorescence studies of PSMA-1-MMAE-Cy5.5 conjugates. In vitro cellular uptake results of PSMA-targeted drug conjugates. Cells were incubated with 50 nM of drug conjugates for 4 h. Nuclei were stained by DAPI and are false colored blue, lysosomes were detected by LysoOrange and are false colored green, and drug conjugates are false colored red. Selective uptake was observed only in PC3pip cells and the conjugates were mainly located in lysosomes. Specificity of drug conjugates for PSMA binding was evaluated by including 1 mM of unlabeled PSMA-1 ligand during incubations. […] Images are taken at 40×. Representative images are shown from three independent experiments.
PC3pip and PC3flu cells were seeded in µ-Slide 8-Well Chamber Slide (ibidi GmbH, Munich, Germany) at 2000 cells/well. […] Cells were washed with PBS and stained with DAPI and LysoOrange (Abcam Inc., Cambridge, UK) for 30 min at 37 °C and 5% CO2, after which they were washed again with PBS and fresh medium added. Selectivity was determined by including 20-fold excess of the PSMA-1 ligand. The uptake and localization of the drug conjugates were visualized under a confocal microscope (Leica Biosystem, Wetzlar, Germany) at 40×.

Data set [7] concerns heterotopic PC3pip and PC3flu tumors. As to the kind of experiment: In vivo NIR fluorescence imaging, mice bearing PC3pip and PC3flu tumors. The conditions noted are these: 40 nmol/kg i.v., 24-h post-injection, n = 5. The arrangement: species or system mouse. On the procedure:
Under guidelines of the animal care and use committee at Case Western Reserve University (IACUC#150033) 6–8-week old male Balb/c athymic nude mice were implanted subcutaneously with 1 × 10^6 of PC3flu and PC3pip in 100 μL of matrigel on the left and right flank, respectively. […] Fluorescence imaging was performed using the Maestro In Vivo Imaging system (Perkin-Elmer Inc., Waltham, MA, USA). At 72-h post injection, mice were euthanized, tumor and organs were extracted for ex vivo imaging. Tumors were snap-frozen in OCT, cut into 10 μm thick sections and fixed on slides. The fluorescence signal from cy5.5 was observed under a Leica DM4000B microscope.

A further data set addresses T1, human liver cathepsin B (Homo sapiens, UniProt P07858).
T1 construct: purchased Anthens Research and Technology, Anthens, AL, USA (so in the source); host or cells: human liver (tissue-derived enzyme)
As to the kind of experiment: Enzymatic cleavage by cathepsin B, HPLC analysis. The class given is in vitro ADME. The settings on record: activated human liver cathepsin B, 2 μM conjugate, 37 °C, triplicate. On the procedure:
as §3, §4

The subject of data set [8] is tumor-free athymic nude mice. As to the kind of experiment: Maximum tolerated dose, single i.v. dose. The format is in vivo, mouse. The settings on record: male nude mice, 3 per dose group, 14 days, 20% body weight loss or overt toxicity as end point. From the text:
Mice were monitored daily for 14 days.

In data set [9] the test system is heterotopic PC3pip tumors. As to the kind of experiment: Heterotopic PC3pip tumor survival study. The format is in vivo. On the procedure: Male athymic nude mice were implanted subcutaneously with 1 × 10^6 of PC3pip cells 100 μL of matrigel. When tumor size reached approximately 100 mm^3 (tumor volume = Length × width^2/2), mice received drugs through tail vein injection every 4 days with a total of five doses. Mice were treated every 4 days with a total of five doses. Animals were weighed and tumor size measured every other day for 90 days. Cures were defined as no tumor present at end of the 90-day study. When tumors became too large or animals were moribund they were euthanized. Five mice were used in each group.

In the next data set the target is PSMA receptor. The conditions noted are these: cited from earlier work. The text has this:
Prostate-specific membrane antigen (PSMA) is a type II transmembrane protein that is overexpressed (by 100–1000 fold) by virtually all prostate cancers. PSMA expression is further increased in poorly differentiated, metastatic, hormone-refractory carcinomas and in cancer cells from castration-resistant prostate cancer patients. Increased PSMA expression is correlated with the risk of early prostate cancer recurrence after radical prostatectomy. […] BIND014 increased intr ...

A short description of data set [10]: In vitro cytotoxicity assay (CCK-8), PC3pip. The format is cell-based, human. On the procedure:
as §1

The test system of data set [11] is heterotopic PC3pip tumors. Description: Heterotopic PC3pip tumor survival study. The format is in vivo. The conditions noted are these: 160 nmol/kg, tumors extracted on day 4, compared with PSMA-1-McMMAE-Cy5.5.
The mark [12] stands for this setting: 72 h incubation, CCK-8, mean ± SD.
[13] abbreviates: 160 nmol/kg i.v. every 4 days, five doses, n = 5.

As to `CC[C@H](C)[C@@H]([C@@H](CC(=O)N1CCC[C@H]1[C@H](OC)[C@@H](C)C(=O)N[C@H](C)[C@@H](O)c1ccccc1)OC)N(C)C(=O)[C@@H](NC(=O)[C@H](C(C)C)N(C)C(=O)CCCCCN1C(=O)CC(SC[C@H](NC(=O)[C@@H](CCC(=O)O)NC(=O)[C@@H](CCC(=O)O)NC(=O)[C@@H](CCC(=O)O)NC(=O)CCCCCNC(=O)[C@H]2CC[C@H](CNC(=O)CC[C@H](NC(=O)N[C@@H](CCC(=O)O)C(=O)O)C(=O)O)CC2)C(=O)NCCCCCC(=O)N[C@@H](CCCCNC(=O)CCCCC[N+]2=C(/C=C/C=C/C=C3/N(C)c4ccc5ccccc5c4C3(C)C)C(C)(C)c3c2ccc2ccccc32)C(N)=O)C1=O)C(C)C` (stereo partly drawn) [PSMA-1-McMMAE-Cy5.5], the “EC50, cytotoxicity to PC3pip cells” value in data set [1] (setting [12]) is listed as “no EC50 values could be obtained”. Also, in data set [2], the “disruption of α-tubulin in PC3flu cells (in words)” value is recorded as “no apparent disruption of tubulin”. Besides, in [3], the “disruption of α-tubulin in PC3pip cells (in words)” value is recorded as “no apparent disruption of tubulin”. In addition, in [4], the “EC50, cytotoxicity to PC3flu cells” value is “no EC50 values could be obtained”. In addition, the “stability in PBS (in words)” value in [5] was “stable”. The “cellular uptake, fluorescence in PC3flu cells (in words)” value in data set [6] is “no fluorescence signal was observed”. In addition, the “uptake in PSMA-negative PC3flu tumors (in words)” value in data set [7] is “little to no detectable uptake”. The “cleavage by cathepsin B (in words)” value in the data set with human liver cathepsin B was “remained intact”.

With `CC[C@H](C)[C@@H]([C@@H](CC(=O)N1CCC[C@H]1[C@H](OC)[C@@H](C)C(=O)N[C@H](C)[C@@H](O)c1ccccc1)OC)N(C)C(=O)[C@@H](NC(=O)[C@@H](NC)C(C)C)C(C)C` [MMAE, monomethyl auristatin E, reference compound] (H-[NMeV]V[Dil][Dolaproine]-X2), the EC50 (in general, the concentration needed to bring the measured effect to its halfway point) stood at 0.24 ± 0.05 nM in data set [1] (setting [12]) and 0.21 ± 0.04 nM in data set [4]. In addition, the “selectivity, differential cytotoxicity ratio between PC3pip and PC3flu cells” value in data set [1] (more potent for PC3pip than PC3flu) is listed as “no selectivity”. In [8], the “maximum tolerated dose (MTD)” value came to 700 nmol/kg. Also, the “tumor growth (in words), 160 nmol/kg” value in data set [9] (setting [13]) was “did not show any antitumor activity”. In [9] (MTD/effective dose), this compound displayed a therapeutic index of 1. For the same compound, the “lowest dose to effectively inhibit tumor growth” value in data set [9] (i.v. every 4 days, five doses, tumor growth inhibited for 30 days, n = 5) amounted to 700 nmol/kg.

For `NCCCC[C@H](NC(=O)N[C@@H](CCC(=O)O)C(=O)O)C(=O)O` [ZJ24, (S)-2-(3-((S)-5-amino-1-carboxypentyl)ureido) pentanedioic acid], the Ki (usually a measure of affinity in units of concentration, obtained from inhibition or displacement) on PSMA receptor (read-out: Ki to PSMA (ZJ24)) was 0.3 nM.

In the case of `CC[C@H](C)[C@@H]([C@@H](CC(=O)N1CCC[C@H]1[C@H](OC)[C@@H](C)C(=O)N[C@H](C)[C@@H](O)c1ccccc1)OC)N(C)C(=O)[C@@H](NC(=O)[C@H](C(C)C)N(C)C(=O)OCc1ccc(NC(=O)[C@H](CCCNC(N)=O)NC(=O)[C@@H](NC(=O)CCCCCN2C(=O)CC(SC[C@H](NC(=O)[C@@H](CCC(=O)O)NC(=O)[C@@H](CCC(=O)O)NC(=O)[C@@H](CCC(=O)O)NC(=O)CCCCCNC(=O)[C@H]3CC[C@H](CNC(=O)CC[C@H](NC(=O)N[C@@H](CCC(=O)O)C(=O)O)C(=O)O)CC3)C(=O)NCCCCCC(=O)N[C@@H](CCCCNC(=O)CCCCC[N+]3=C(/C=C/C=C/C=C4/N(C)c5ccc6ccccc6c5C4(C)C)C(C)(C)c4c3ccc3ccccc43)C(N)=O)C2=O)C(C)C)cc1)C(C)C` (stereo partly drawn) [PSMA-1-VcMMAE-Cy5.5] (I: V[Cit][PABC][NMeV]V[Dil][Dolaproine]-X2 / II: {Glu-CO-γGlu-Trx-Ahx}-[dE][dE][dE]C[Ahx]K(X3)-NH2; linker I:N-II:4 via X4), in [10] (72 h, CCK-8, in the presence of protease inhibitor E64 (50 μM given for the Cy5.5 conjugates), read-out: EC50, cytotoxicity to PC3pip cells + E64), the EC50 was determined as 3.66 nM. Further, in data set [10] (72 h incubation, CCK-8, mean ± SD, read-out: EC50, cytotoxicity to PC3pip cells), the EC50 came to 0.84 nM. Besides, the “apoptosis, caspase 3 staining of tumors (in words)” value in [11] is reported as “significantly more apoptosis”. The “disruption of α-tubulin in PC3flu cells (in words)” value in data set [2] is given as “no obvious changes in α-tubulin structure”. In data set [3], the “disruption of α-tubulin in PC3pip cells (in words)” value was “selective tubulin disruption”. Also, the “stability in PBS (in words)” value in [5] was “stable”. Further, the “cellular uptake, fluorescence in PC3flu cells (in words)” value in data set [6] is reported as “no fluorescence signal was observed”. In [7], the “uptake in PSMA-negative PC3flu tumors (in words)” value is on record as “little to no detectable uptake”. Further, in [9] (setting [13]), the “cures (tumor-free mice at end of 90-day study), 160 nmol/kg” value is 3/5 and three out of five; the “tumor growth (in words), 160 nmol/kg” value is recorded as “effectively inhibited tumor growth”. Besides, the “cures, lower dose group of Figure S4B” value in data set [9] (dose group not printed beside the label, i.v. every 4 days, five doses, n = 5) is 1/5. Further, in the data set with human liver cathepsin B, the “cleavage by cathepsin B (in words)” value is on record as “degraded rapidly” and the “half-life in the presence of cathepsin” value turned out to be 19.8 min.

With `O=C(O)CCC(NC(=O)NC(CCC(=O)O)C(=O)O)C(=O)O` (stereo not drawn) [DUPA, 2-(3-(1,3-dicarboxypropyl)-ureido) pentanedioic acid], the Ki at PSMA receptor (read-out: Ki to PSMA receptor (DUPA)) was 8 nM.
